In patent publication US7553860B2, “Substituted gamma lactams as therapeutic agents” (Allergan, Inc., priority 2006, dated 2009) one finds Ki and EC50 data, which are given here for two compounds.

Assay [1] deals with T1, EP2 (Homo sapiens, UniProt P43116). The assay can be described thus: EP2 competition binding ([3H]PGE2), Ki. Also noted: expressed in transfected cells; host or cells: HEK 293. The note with it: HEK 293 cells stably expressing human EP2, [3H]PGE2. As to the method:
Competition binding experiments are performed in a medium containing Hank's balanced salt solution, Hepes 20 mM, pH 7.3, membranes (˜60 μg protein) or 2×10^5 cells from HEK 293 cells stably expressing human EP2 receptors, [^3H]PGE2 (10 nM) and various concentrations of test compounds in a total volume of 300 μl. Reaction mixtures are incubated at 23° C. for 60 min, and are filtered over Whatman GF/B filters under vacuum. Filters are washed three times with 5 ml ice-cold buffer containing 50 mM Tris/HCl (pH 7.3). Non-specific binding is estimated in the presence of excess unlabeled PGE2 (10 μM). Binding data fitted to the binding model for a single class of binding sites, using nonlinear regression analysis. IC50 values thus obtained are converted to Ki using the equation of Ki=(IC50/(1+[L]/KD) where [L] represents PGE2 concentration (10 nM) and KD the dissociation constant for [^3H]PGE2 at human EP2 receptors (40 nM). […]
The cell homogenate is centrifuged at 19000 r.p.m. for 20 min at 4° C. using a Beckman Ti-60 rotor. The resultant pellet is resuspended in TME buffer to give a final 1 mg/ml protein concentration, as determined by Biorad assay. […]
[^3H-] […] 17-phenyl PGF2[…] and non-specific binding determined with 10^−5M of unlabeled PGE2, or 17-phenyl PGF2α, according to receptor subtype studied.

The target of assay [2] is T1, EP2. Nature of the assay: EP2 cAMP. It counts as cell-based.
Another assay addresses T2, hEP2/Gqs5 (Homo sapiens, UniProt P43116).
T2 construct: expressed in transfected cells; host or cells: HEK-293(EBNA)
The assay can be described thus: EP2 FLIPR calcium signal. It counts as cell-based. The conditions noted are these: HEK-293(EBNA) cells. As to the method: (§1) HEK-293(EBNA) cells, stably expressing one type or subtype of recombinant human prostaglandin receptors (prostaglandin receptors expressed: hDP/Gqs5; hEP1; hEP2/Gqs5; hEP3A/Gqi5; hEP4/Gqs5; hFP; hIP; hTP), are cultured in 100 mm culture dishes in high-glucose DMEM medium containing 10% fetal bovine serum, 2 mM I-glutamine, 250 μg/ml geneticin (G418) and 200 μg/ml hygromycin B as selection markers, and 100 units/ml penicillin G, 100 μg/ml streptomycin and 0.25 μg/ml amphotericin B.
(§2) Cells are seeded at a density of 5×10^4 cells per well in Biocoat® Poly-D-lysine-coated black-wall, clear-bottom 96-well plates (Becton-Dickinson) and allowed to attach overnight in an incubator at 37° C. Cells are then washed two times with HBSS-HEPES buffer (Hanks Balanced Salt Solution without bicarbonate and phenol red, 20 mM HEPES, pH 7.4) using a Denley Cellwash plate washer (Labsystems). […]
(§3) Cells are excited with an Argon laser at 488 nm, and emission is measured through a 510-570 nm bandwidth emission filter (FLIPR™, Molecular Devices, Sunnyvale, Calif.). […] The peak increase in fluorescence intensity is recorded for each well. […] The peak fluorescence change in each drug-containing well is then expressed relative to the controls. […]

The next assay addresses T3, hDP/Gqs5 (Homo sapiens, UniProt Q13258).
T3 construct: expressed in transfected cells; host or cells: HEK-293(EBNA)
T3 sequence (Q13258 1-359): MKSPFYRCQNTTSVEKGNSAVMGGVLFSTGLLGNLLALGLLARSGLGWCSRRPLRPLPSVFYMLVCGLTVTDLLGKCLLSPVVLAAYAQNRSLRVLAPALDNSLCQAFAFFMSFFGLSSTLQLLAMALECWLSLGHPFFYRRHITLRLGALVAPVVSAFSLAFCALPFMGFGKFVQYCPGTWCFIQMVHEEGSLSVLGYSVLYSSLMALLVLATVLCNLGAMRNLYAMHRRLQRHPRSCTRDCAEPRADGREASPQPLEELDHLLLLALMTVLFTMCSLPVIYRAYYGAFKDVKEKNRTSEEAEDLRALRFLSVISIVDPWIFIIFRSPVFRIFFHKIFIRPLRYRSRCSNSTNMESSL
Nature of the assay: FLIPR calcium signal, hDP. It counts as cell-based. The note with it: HEK-293(EBNA) cells; read-out: Other Receptors (EC50 in nM) hDP. How it is done: as §1, §2, §3

In another assay the target is T4, hEP3A/Gqi5 (Homo sapiens, UniProt P43115).
T4 construct: expressed in transfected cells; host or cells: HEK-293(EBNA)
T4 sequence (P43115 1-390): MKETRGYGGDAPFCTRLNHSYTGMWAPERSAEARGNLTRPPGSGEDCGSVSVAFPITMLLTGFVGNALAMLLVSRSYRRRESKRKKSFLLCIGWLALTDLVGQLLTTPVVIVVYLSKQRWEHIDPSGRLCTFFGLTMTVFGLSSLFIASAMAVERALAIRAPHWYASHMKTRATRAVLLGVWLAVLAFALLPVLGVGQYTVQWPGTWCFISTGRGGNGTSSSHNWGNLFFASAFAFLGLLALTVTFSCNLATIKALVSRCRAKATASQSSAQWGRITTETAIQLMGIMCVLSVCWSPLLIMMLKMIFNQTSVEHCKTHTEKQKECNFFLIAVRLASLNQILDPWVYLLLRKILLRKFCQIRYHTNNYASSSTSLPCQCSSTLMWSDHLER
The assay can be described thus: FLIPR calcium signal, hEP3A. It counts as cell-based. The note with it: HEK-293(EBNA) cells; read-out: Other Receptors (EC50 in nM) hEP3A. How it is done:
as §1, §2, §3

T1 sequence (P43116 whole entry): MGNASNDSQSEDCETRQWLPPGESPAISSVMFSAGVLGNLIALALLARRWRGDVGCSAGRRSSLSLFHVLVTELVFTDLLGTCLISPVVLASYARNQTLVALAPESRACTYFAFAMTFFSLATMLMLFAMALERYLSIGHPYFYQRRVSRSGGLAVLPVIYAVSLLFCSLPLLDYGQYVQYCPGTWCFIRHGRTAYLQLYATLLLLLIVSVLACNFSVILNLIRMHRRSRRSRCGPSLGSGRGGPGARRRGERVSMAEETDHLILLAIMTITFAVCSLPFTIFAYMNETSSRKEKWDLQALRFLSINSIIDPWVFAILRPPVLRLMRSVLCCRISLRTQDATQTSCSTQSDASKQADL
T2 sequence (P43116 whole entry): as above

The Ki is the equilibrium dissociation constant of an inhibitor or competing ligand from its target. A high value points to lower affinity. By EC50 is commonly meant the concentration giving half of the maximal effect. As to `CCCCCC(F)c1ccc(N2C(=O)OC[C@@H]2COCc2ccc(C(=O)O)s2)cc1` (stereo partly drawn) [5-{(S)-3-[4-(1-Fluoro-hexyl)-phenyl]-2-oxo-oxazolidin-4-ylmethoxymethyl}-thiophene-2-carboxylic acid], the Ki on EP2 [1] stood at 1040 nM. This compound also yielded an EC50 at EP2 [2] of 13 nM.

For `CCCCCC(O)c1ccc(N2C(=O)OC[C@@H]2COCc2ccc(C(=O)O)s2)cc1` (stereo partly drawn) [5-{(S)-3-[4-(1-Hydroxy-hexyl)-phenyl]-2-oxo-oxazolidin-4-ylmethoxymethyl}-thiophene-2-carboxylic acid], on EP2 [1], the Ki is 2710 nM. In addition, the EC50 at EP2 [2] is 14 nM; on hEP2/Gqs5, 817 nM; at hDP/Gqs5, > 10000 nM; at hEP3A/Gqi5 it was 995 nM.
